Reference: PubChem BioAssay AID2060332 (Molecular Pharmacology Branch, DTP, NCI, 2025)

System: LG0567-F671-PDC multi-cell spheroid viability
Assay: Anticancer human tumor LG0567-F671-PDC patient-derived lung adenocarcinoma cell line growth inhibition [IpAb]
Details: for IC50: curve of first compound; for viability, T/C: stronger effect = lower value
Summary of the method: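 Spheroids of 60% malignant cells, 25% HUVEC and 15% MSC were exposed to targeted agents combined with ipatasertib or abemaciclib. Doses started at or near clinical Cmax (10 microM when unknown) and fell in half-log steps.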
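Also: viability read after 7 days of drug exposure.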
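For viability, T/C in this document: 100% = DMSO vehicle control luminescence.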

`Cc1nc(NC(=O)N2CCCC2C(N)=O)sc1-c1ccnc(C(C)(C)C(F)(F)F)c1` (stereo not given) + CC(C)NCC(C(=O)N1CCN(c2ncnc3c2C(C)CC3O)CC1)c1ccc(Cl)cc1 showed an IC50 (second compound 0.1 µM) of 5190 nM, an IC50 (second compound 0.316 µM) of 924 nM and an IC50 (second compound 1 µM) of 257 nM. It also gave an IC50 (second compound 3.16 µM) of 341 nM, an IC50 (second compound 10 µM) of less than 31.6 nM and a viability, T/C (second compound 0.1 µM, first compound 0.0316 µM) of 85.3%. For the same compound, the viability, T/C (second compound 0.1 µM, first compound 0.1 µM) was 86.2%, the viability, T/C (second compound 0.1 µM, first compound 0.316 µM) was 71% and the viability, T/C (second compound 0.1 µM, first compound 1 µM) was 42.8%. For the same compound, the viability, T/C (second compound 0.1 µM, first compound 3.16 µM) was 72%, the viability, T/C (second compound 0.1 µM, first compound 10 µM) was 39.7% and the viability, T/C (second compound 0.316 µM, first compound 0.0316 µM) was 63.8%. It also gave a viability, T/C (second compound 0.316 µM, first compound 0.1 µM) of 72%, a viability, T/C (second compound 0.316 µM, first compound 0.316 µM) of 44.2% and a viability, T/C (second compound 0.316 µM, first compound 1 µM) of 56.8%. It also gave a viability, T/C (second compound 0.316 µM, first compound 3.16 µM) of 40.2%, a viability, T/C (second compound 0.316 µM, first compound 10 µM) of 35.9% and a viability, T/C (second compound 1 µM, first compound 0.0316 µM) of 66.1%. It also gave a viability, T/C (second compound 1 µM, first compound 0.1 µM) of 68.2%, a viability, T/C (second compound 1 µM, first compound 0.316 µM) of 46.2% and a viability, T/C (second compound 1 µM, first compound 1 µM) of 34.2%. For the same compound, the viability, T/C (second compound 1 µM, first compound 3.16 µM) was 35.6%, the viability, T/C (second compound 1 µM, first compound 10 µM) was 29.8% and the viability, T/C (second compound 3.16 µM, first compound 0.0316 µM) was 56%. For the same compound, the viability, T/C (second compound 3.16 µM, first compound 0.1 µM) was 50.9%, the viability, T/C (second compound 3.16 µM, first compound 0.316 µM) was 48.7% and the viability, T/C (second compound 3.16 µM, first compound 1 µM) was 44.5%. The viability, T/C (second compound 3.16 µM, first compound 3.16 µM) was 41.1%, the viability, T/C (second compound 3.16 µM, first compound 10 µM) was 21.4% and the viability, T/C (second compound 10 µM, first compound 0.0316 µM) was 50.5%. The viability, T/C (second compound 10 µM, first compound 0.1 µM) was 53.1%, the viability, T/C (second compound 10 µM, first compound 0.316 µM) was 38.6% and the viability, T/C (second compound 10 µM, first compound 1 µM) was 46.2%. The viability, T/C (second compound 10 µM, first compound 3.16 µM) was 37.8% and the viability, T/C (second compound 10 µM, first compound 10 µM) was 25.8%.
